Measurements: patent US9745357B2, “Peptides used for treating cancers and, in particular, chronic lymphoid leukaemia” (Centre National de la Recherche Scientifique, priority 2009, dated 2017)

Assays:
[1] = tested on: B lymphocytes from patients suffering from chronic lymphoid leukemia (CLL); settings: for cell effect CLL 40 (survival): 4 hours of culture, cells not labeled with annexin or propidium iodide; for effect of the peptide on cell mortality, in words (relative to A1 WT IRS): 40 μM, 4 hours, FIG. 9
Procedure: Peripheral blood B lymphocytes taken from patients suffering from CLL and then purified on a Ficoll cushion and placed in culture are incubated in the presence of […] of the peptides described for FIG. 2. The percentage cell survival after 4 hours (gray column) or 24 hours (white column) of culture corresponds to the percentage of cells labeled neither with annexin nor with propidium iodide, evaluated by flow cytometry.
The CLL B lymphocytes were obtained from peripheral blood of 18 different patients suffering from chronic lymphoid leukemia. […] The samples were taken in the Brest hospital center, in the hematology department. The blood samples were taken after informing the patients and obtaining their informed consent.
The lymphocytes, mononuclear cells, were isolated from the heparinized peripheral blood samples by Ficoll-Hypaque (LSM 1077 lymphocyte, euro-bio) centrifugation. The red blood cells were lyzed by incubation for 10 min in VersaLyse Lysing Solution (Beckman Coulter). The mononuclear cells are obtained after 2 washes in culture medium (RPMI1640, Gibco BRL).
(§1) The cells were cultured in a culture medium composed either of RPMI 1640 (B lymphocytes) or of DMEM (COS7, HCT116, HGT1, 293, HeLa) containing 10% of FCS (fetal calf serum, 1% of penicillin-streptomycin and 1% of glutamine, Gibco BRL). The cells are distributed in a 24-well plate and cultured at 37° C. in a humid atmosphere under 5% CO2.
(§2) 400 μl of cell suspension (1×10^6 cells/ml) per well were treated for 4 h or 24 h with various concentrations of peptides. The test for activity of the peptides in the presence of emetine (FIG. 6) was carried out by preincubating the cells with 100 μM of emetine for one hour before the addition of peptide.
(§3) After the cells have been washed with PBS, they were analyzed using the Annexin V-FITC IP system according to the supplier's recommendations (Beckman Coulter).
The cells taken from patients suffering from chronic lymphoid leukemia were purified on a Ficoll cushion. […] The cells were placed in culture in RPMI medium in the presence of 10% FCS (fetal calf serum). The peptides were added directly to the culture medium. These peptides comprise the IRS sequence (the amino acid sequence of which is RYIRS) which is known to allow the penetration of peptides into B lymphocytes in culture (Dong et al., 2005). […] The cells which survive the treatment are those which are labeled neither with annexin nor with propidium iodide.

[2] = tested on: control T lymphocytes (patients suffering from hemochromatosis); assay: Cell survival of control T lymphocytes, annexin/propidium iodide flow cytometry; format: cell-based, human; settings: 40 μM, 4 hours; FIG. 9
[3] = tested on: control T lymphocytes (patients suffering from hemochromatosis); assay: as above; format: cell-based, human; settings: 40 μM peptide, 4 hours of culture, cells not labeled with annexin or propidium iodide
Procedure: FIG. 7: Activity of the A1WT peptide on cells of lymphocytic, lymphoid, gastric, colonic or renal origin The cells are prepared and placed in culture (see Materials and Methods) and then incubated for 4 H with the A1WT or A1 YALA peptide. The percentage cell survival corresponds to the percentage of cells labeled neither with annexin nor with propidium iodide, evaluated by flow cytometry. The names of the pathological conditions from which the patients from whom the samples are taken are suffering are indicated under the figure. The control T (L.T.) and B (L.B.) lymphocytes are taken from patients suffering from a disease not related to a lymphocytic pathological condition (hemochromatosis).
The control B lymphocytes and T lymphocytes originate from peripheral blood samples from patients suffering from hemochromatosis, provided by the CTS transfusion center in Brest. The B and T lymphocytes were isolated using the Rosett-Sep kit (Stemcell Technologies) according to the supplier's recommendations.
as §1, §2, §3

[4] = tested on: Jok cells (cell line derived from B lymphocytes); assay: Cell survival of Jok cells, annexin/propidium iodide flow cytometry; format: cell-based, human; settings: for cell effect Jok 20 (survival): 20 μM peptide; for cell effect Jok 20 (survival) / cell effect Jok 40 (survival): 4 hours of culture, cells not labeled with annexin or propidium iodide; for effect of the peptide on cell mortality, in words (relative to A1 WT IRS): 4 hours, FIG. 9; for cell effect Jok 40 (survival): 40 μM peptide
Procedure: The cells are treated as indicated for FIG. 7, with the CLL cells, control T lymphocytes and Jok lymphocytes, which are incubated with the A1 WT IRS peptide and derivatives thereof described in table 1. The Jok cells were incubated either with 20 μM (JOK 20) or with 40 μM (JOK 40) of each of the peptides. In the interests of simplifying the legend, the A1 WT IRS peptide is referred to as “WT”. Likewise, the derivatives thereof are referred to by the name of the mutations (A1 K3I IRS is referred to as “K3I”, for example).
as §1, §2, §3
The peptides were tested on B lymphocytes from patients suffering from chronic lymphoid leukemia, control T lymphocytes, or Jok cells (cell line derived from B lymphocytes). The experiment was repeated three times for each type of cell tested.

[5] = concentration not given (20 or 40 μM)

Compound | cell survival with emetine alone ([1]; 100 μM emetine, after 4 H of incubation (from 97%), FIG. 6) [%] | effect of the peptide on cell mortality, in words (relative to A1 WT IRS) [2] | cell effect LT 40 (survival) [3] | cell effect CLL 40 (survival) ([1]; 40 μM peptide) | effect of the peptide on cell mortality, in words (relative to A1 WT IRS) [1] | cell effect Jok 20 (survival) [4] | effect of the peptide on cell mortality, in words (relative to A1 WT IRS) ([4]; 20 μM) | cell effect Jok 40 (survival) [4] | effect of the peptide on cell mortality, in words (relative to A1 WT IRS) ([4]; 40 μM) | effect on percentage cell survival ([1]; 40 μM peptide, 4 H and 24 H, FIG. 3) | action of the peptide on cell survival, in words, cell type not given ([1]; Example 6 (CLL cells, control T lymphocytes, Jok cells)) | effect of the peptide on cell mortality, in words (relative to A1 WT IRS) [4, 5]
CC[C@H]1CN2CCc3cc(OC)c(OC)cc3[C@@H]2C[C@@H]1C[C@H]1NCCc2cc(OC)c(OC)cc21 [emetine, reference compound] | 82 | – | – | – | – | – | – | – | – | – | – | –
GGKYGRDFLLRFRYIRS [A1 R1, 2G IRS] | – | abolishes the effect | − (−: survival >50%) | − (−: survival >50%) | abolishes the effect | − (−: survival >50%) | abolishes the effect | +/− (+/−: survival between 25 and 50%) | only partially decreased | – | – | –
KKKYGRDFLLRFRYIRS [A1 R1, 2K IRS] | – | decreases the effect | +/− (+/−: survival between 25 and 50%) | + (+: survival <25%) | decreases the effect | +/− (+/−: survival between 25 and 50%) | decreases the effect | + (+: survival <25%) | the same effect as the A1 WT IRS peptide | – | – | –
KYGRDFLLRFRYIRS [A1 del2 IRS, deletion of the first two amino acids] | – | loss of effect | − (−: survival >50%) | − (−: survival >50%) | loss of effect | +/− (+/−: survival between 25 and 50%) | loss of effect | + (+: survival <25%) | considerable mortality | – | – | –
RIIYDRHFLLNMRYIRS [BPSg WT IRS, reference compound] | – | – | – | – | – | – | – | – | – | the percentage survival did not decrease | – | –
RIKYDRKFLLDRRYIRS [BP2 I3K IRS, reference compound] | – | – | − (−: survival >50%) | − (−: survival >50%) | – | − (−: survival >50%) | – | − (−: survival >50%) | – | – | does not confer a better efficacy | –
RRIYGRDFLLRFRYIRS [A1 K3I IRS] | – | – | – | − (−: survival >50%) | loss of effect | +/− (+/−: survival between 25 and 50%) | partially | + (+: survival <25%) | – | – | – | –
RRKYARDFLLRFRYIRS [A1 G5A-IRS] | – | slightly increases the effect | + (+: survival <25%) | + (+: survival <25%) | slightly increases the effect | + (+: survival <25%) | – | + (+: survival <25%) | – | – | – | slightly increases the effect
RRKYGHDFLLRFRYIRS [A1 R6H IRS] | – | abolishes the effect | +/− (+/−: survival between 25 and 50%) | +/− (+/−: survival between 25 and 50%) | abolishes the effect | + (+: survival <25%) | – | + (+: survival <25%) | – | – | – | the effect is potentiated
